In patent US20150065440A1 (Progen Pharmaceuticals Limited, priority 2007, published 2015):
Like-named read-outs stand apart in the source and are kept apart here.

Legend:
HSV-2 = test: Viral plaque number-reduction assay, HSV-2; settings: for Selective index CC50/IC50 HSV-2: GMK AH1 cells; for HSV-2 IC50: viral plaques in GMK AH1 cells (Table 9)
In short: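 200 PFU virus premixed 10 min with compound (100 μg/mL screen) and kept throughout infection. HSV plaques in GMK AH1 cells, RSV (strain A-2) in HEp-2 cells. Methylcellulose overlay, 37 °C, crystal violet staining after 2 days (HSV-2) or 3 days (HSV-1); plaque numbers counted.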

VEGF = biological target: T1, VEGF (Homo sapiens, UniProt P15692); test: Growth factor binding assay (SPR solution affinity), VEGF; settings: HBS-EP buffer, 25° C.
T1 sequence (P15692 207-395): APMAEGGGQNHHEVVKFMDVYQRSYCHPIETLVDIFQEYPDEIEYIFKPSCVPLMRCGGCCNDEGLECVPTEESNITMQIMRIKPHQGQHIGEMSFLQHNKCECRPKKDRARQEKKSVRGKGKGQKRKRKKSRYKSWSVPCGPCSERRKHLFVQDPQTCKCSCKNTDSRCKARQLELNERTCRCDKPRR
In short: (§1)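 Kd measured by SPR solution affinity: fixed growth factor with varying ligand competing for heparin-coated sensorchip, 25 °C. Buffer HBS-EP pH 7.4 (150 mM NaCl) for FGF-1 and VEGF; FGF-2 with 0.3 M NaCl. Duplicate values averaged.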

FGF-2 = FGF-2 (Homo sapiens, UniProt P09038); test: Growth factor binding assay (SPR solution affinity), FGF-2
In short: as §1

[1] = tested on: pooled normal human plasma; test: Anticoagulant activity, APTT; settings: 0.1 mg/mL in normal pooled human plasma
Procedure: APTT measurements were performed on a STAGO STA-Compact Coagulation Analyser using standard protocols according to the manufacturer's instructions. Unfractionated heparin (UFH) was used as a control.

RSV = test: Viral plaque number-reduction assay, RSV; settings: for Selective index CC50/IC50 RSV: HEp-2 cells; for RSV IC50: viral plaques (Table 9)
Procedure: African green monkey kidney (GMK AH1) cells^46 were cultured in Eagle's minimum essential medium (EMEM) supplemented with 2% calf serum, 0.05% Primaton RL substance (Kraft Inc., Norwich, USA) and antibiotics. Human epidermoid carcinoma (HEp-2) cells were cultured in Dulbecco's modified EMEM (DMEM) supplemented with 10% fetal calf serum and antibiotics. […] The RSV strain A-2^50 was used. The RSV stock was prepared as described by Hallak et al.^51 and stored at −70° C. in the presence of 40% sucrose^52.
The viral infectivity (the plaque number-reduction) assay and the plaque size-reduction assay were carried out as described previously^17. […] Subsequently, the cells were washed with 2 mL of EMEM and overlaid with 1% methylcellulose solution in EMEM. The plaques were visualized by staining with crystal violet solution after 2 (HSV-2) or 3 (HSV-1) days of incubation at 37° C. […] When the compounds were screened for anti-HSV or anti-RSV activity, mixtures of 200 PFU of the virus and the test compound (100 μg/mL) in serum-free EMEM were incubated for 10 min at room temperature before addition to cells and during the entire period of viral infection of cells and the development of viral plaques. In the plaque size-reduction assay, the compounds were added to cells (in methylcellulose overlay medium) after 2 h period of virus infection of cells in the absence of the inhibitor. After 2-3 days of incubation at 37° C., the viral plaques were visualized by staining the cells with 1% solution of crystal violet. For each compound tested, the images of twenty neighboring plaques were captured using a Leica DC300 digital camera attached to a Leitz-Wetzlar Diavert microscope. The area of each plaque was determined using IM500 image software (Leica). Similar protocols were used for RSV, except that the assays were performed in HEp-2 cells and DMEM supplemented with 2% heat-inactivated fetal calf serum was used instead of EMEM.

FGF-1 = FGF-1 (Homo sapiens, UniProt P05230); test: Growth factor binding assay (SPR solution affinity), FGF-1; settings: SPR, HBS-EP buffer, 25° C.; read-out: Kd FGF-1
[2] = tested on: normal pooled human plasma; test: Anticoagulant activity, Heptest; settings: 0.1 mg/mL in normal pooled human plasma
[3] = biological target: T2, recombinant human heparanase (Homo sapiens, UniProt Q9Y251); test: Heparanase inhibition assay (fondaparinux cleavage, WST-1); settings: read-out: Ki Heparanase; IC50 converted into Ki; fondaparinux 100 μM, pH 5.0
T2 sequence (Q9Y251 158-543 limits assumed): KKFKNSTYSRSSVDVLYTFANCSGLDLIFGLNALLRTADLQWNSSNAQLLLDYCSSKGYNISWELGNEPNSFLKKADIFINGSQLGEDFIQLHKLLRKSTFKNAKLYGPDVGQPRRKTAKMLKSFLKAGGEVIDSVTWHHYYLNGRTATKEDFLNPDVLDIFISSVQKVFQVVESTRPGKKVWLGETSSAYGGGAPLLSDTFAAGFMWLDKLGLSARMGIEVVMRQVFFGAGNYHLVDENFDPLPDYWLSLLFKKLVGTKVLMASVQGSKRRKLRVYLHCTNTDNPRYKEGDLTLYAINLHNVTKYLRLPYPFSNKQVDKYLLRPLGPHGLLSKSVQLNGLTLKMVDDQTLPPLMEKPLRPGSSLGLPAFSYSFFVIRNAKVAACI
T2 sequence (Q9Y251 36-109 limits assumed): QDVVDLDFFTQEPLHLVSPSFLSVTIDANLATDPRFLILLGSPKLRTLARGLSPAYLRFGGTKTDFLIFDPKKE
Procedure: In the presence of an inhibitor the catalytic activity of heparanase is reduced, and the amount of disaccharide produced and the optical density of the solution are both decreased. The percent inhibition and IC50 of the inhibitor are determined from measurement of the optical density (OD) over a range of inhibitor concentrations.
Assays were carried out in 40 mM sodium acetate buffer, pH 5.0, as follows. […] A blue colour was developed by incubation of the plates at 60° C. for 60 min. […] The IC50 value for each compound was evaluated and converted into a Ki (inhibition constant) using the expression

[4] = SPR, HBS-EP buffer containing 0.3 M NaCl, 25° C.; read-out: Kd FGF-2

Chain of FGF-1 (P05230 whole entry, species assumed): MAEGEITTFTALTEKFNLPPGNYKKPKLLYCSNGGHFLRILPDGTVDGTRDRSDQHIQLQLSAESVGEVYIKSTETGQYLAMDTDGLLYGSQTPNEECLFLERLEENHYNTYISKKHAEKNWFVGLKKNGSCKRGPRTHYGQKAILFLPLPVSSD
Chain of FGF-2 (P09038 143-288, species assumed): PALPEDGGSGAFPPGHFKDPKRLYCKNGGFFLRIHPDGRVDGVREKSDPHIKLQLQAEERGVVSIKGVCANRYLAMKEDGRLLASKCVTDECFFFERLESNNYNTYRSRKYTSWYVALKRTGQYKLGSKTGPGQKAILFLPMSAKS

`CCCCCCCCCCCCOC1OC(COS(=O)(=O)O)C(OS(=O)(=O)O)C(OS(=O)(=O)O)C1OC1OC(COS(=O)(=O)O)C(OS(=O)(=O)O)C(OC2OC(COS(=O)(=O)O)C(OS(=O)(=O)O)C(OC3OC(COS(=O)(=O)O)C(OS(=O)(=O)O)C(OC4OC(COS(=O)(=O)O)C(OS(=O)(=O)O)C(OS(=O)(=O)O)C4OS(=O)(=O)O)C3OS(=O)(=O)O)C2OS(=O)(=O)O)C1OS(=O)(=O)O` [Compound 4, Dodecyl 2,3,4,6-tetra-O-sodium sulfonato-α-D-mannopyranosyl-(1→3)-2,4,6-tri-O-sodium sulfonato-α-D-mannopyranosyl-(1→3)-2,4,6-tri-O-sodium sulfonato-α-D-mannopyranosyl-(1→3)-2,4,6-tri-O-sodium sulfonato-α-D-mannopyranosyl-(1→2)-3,4,6-tri-O-sodium sulfonato-α-D-mannopyranoside] was tested, and the “Selective index CC50/IC50 HSV-2” value (HSV-2) was over 444, the Kd (VEGF) was 12 ± 3 nM and the Kd (FGF-2; [4]) was 480 ± 70 nM. For the same molecule, the APTT [1] was 125.9 s, the “Selective index CC50/IC50 RSV” value (RSV) was over 87 and the Kd (FGF-1) was 6 ± 3 nM. The Heptest [2] was 64.2 s and the Ki [3] was 4.2 ± 0.5 nM.
For `CC(C)CCCC(C)C1CCC2C3CCC4CC(OC5OC(COS(=O)(=O)O)C(OS(=O)(=O)O)C(OS(=O)(=O)O)C5OC5OC(COS(=O)(=O)O)C(OS(=O)(=O)O)C(OC6OC(COS(=O)(=O)O)C(OS(=O)(=O)O)C(OC7OC(COS(=O)(=O)O)C(OS(=O)(=O)O)C(OS(=O)(=O)O)C7OS(=O)(=O)O)C6OS(=O)(=O)O)C5OS(=O)(=O)O)CCC4(C)C3CCC12C` [Compound 20, 3β-Cholestanyl 2,3,4,6-tetra-O-sodium sulfonato-α-D-mannopyranosyl-(1→3)-2,4,6-tri-O-sodium sulfonato-α-D-mannopyranosyl-(1→3)-2,4,6-tri-O-sodium sulfonato-α-D-mannopyranosyl-(1→2)-3,4,6-tri-O-sodium sulfonato-α-D-mannopyranoside], the “Selective index CC50/IC50 HSV-2” value (HSV-2) was 100, the Kd (VEGF) was 22 ± 6 nM and the Kd (FGF-2; read-out: Kd FGF-2; SPR, HBS-EP buffer containing 0.3 M NaCl, 25° C.) was 160 ± 40 nM. For the same molecule, the APTT [1] was 94.0 s, the “Selective index CC50/IC50 RSV” value (RSV) was 66 and the Kd (FGF-1) was 0.6 ± 0.5 nM. It also gave a Heptest [2] of 28.0 s and a Ki [3] of 5.8 ± 1.5 nM.
`CC(C)CCC[C@@H](C)[C@H]1CC[C@H]2[C@@H]3CCC4CC(O[C@H]5O[C@H](COS(=O)(=O)[O-])[C@@H](OS(=O)(=O)[O-])[C@H](O[C@H]6O[C@H](COS(=O)(=O)[O-])[C@@H](OS(=O)(=O)[O-])[C@H](O[C@H]7O[C@H](COS(=O)(=O)[O-])[C@@H](OS(=O)(=O)[O-])[C@H](OS(=O)(=O)[O-])[C@@H]7OS(=O)(=O)[O-])[C@@H]6OS(=O)(=O)[O-])[C@@H]5OS(=O)(=O)[O-])CC[C@]4(C)[C@H]3CC[C@]12C.[Na+].[Na+].[Na+].[Na+].[Na+].[Na+].[Na+].[Na+].[Na+].[Na+]` (stereo partly drawn) [Compound 56, 3′-Cholestanyl 2,3,4,6-tetra-O-sodium sulfonato-α-D-mannopyranosyl-(1→3)-2,4,6-tri-O-sodium sulfonato-α-D-mannopyranosyl-(1→3)-3,4,6-tri-O-sodium sulfonato-α-D-mannopyranoside] was tested, and the “HSV-2 IC50” value (HSV-2) was 0.3 µg/mL, the Kd (VEGF) was 90 ± 30 nM and the Kd (FGF-2; [4]) was 490 ± 40 nM. The APTT [1] was 58.5 s, the “RSV IC50” value (RSV) was 0.45 µg/mL and the Kd (FGF-1) was 16 ± 7 nM. It also gave a Heptest [2] of 24.2 s and a Ki [3] of 10.5 ± 1.7 nM.
In the case of `CC(C)CCC[C@@H](C)[C@H]1CC[C@H]2[C@@H]3CCC4C[C@@H](OCc5cn(CCCO[C@H]6O[C@H](COS(=O)(=O)[O-])[C@@H](OS(=O)(=O)[O-])[C@H](O[C@H]7O[C@H](COS(=O)(=O)[O-])[C@@H](OS(=O)(=O)[O-])[C@H](O[C@H]8O[C@H](COS(=O)(=O)[O-])[C@@H](OS(=O)(=O)[O-])[C@H](OS(=O)(=O)[O-])[C@@H]8OS(=O)(=O)[O-])[C@@H]7OS(=O)(=O)[O-])[C@@H]6OS(=O)(=O)[O-])nn5)CC[C@]4(C)[C@H]3CC[C@]12C.[Na+].[Na+].[Na+].[Na+].[Na+].[Na+].[Na+].[Na+].[Na+].[Na+]` (stereo partly drawn) [Compound 60, 3-{4-(Cholestan-3β-yl-oxymethyl)-[1,2,3]triazol-1-yl}propyl 2,3,4,6-tetra-O-sodium sulfonato-α-D-mannopyranosyl-(1→3)-2,4,6-tri-O-sodium sulfonato-α-D-mannopyranosyl-(1→3)-3,4,6-tri-O-sodium sulfonato-α-D-mannopyranoside], the “HSV-2 IC50” value (HSV-2) is reported as 0.24 µg/mL, the Kd (VEGF) is reported as 260 ± 130 nM and the Kd (FGF-2; [4]) is reported as 474 ± 1.4 nM. For the same molecule, the APTT [1] was 71.4 s, the “RSV IC50” value (RSV) was 0.39 µg/mL and the Kd (FGF-1) was 14.3 ± 3 nM. It also gave a Heptest [2] of 26.4 s and a Ki [3] of 8.4 ± 2.6 nM.
For `CC(C)CCC[C@@H](C)[C@H]1CC[C@H]2[C@@H]3CCC4CC(OCc5cn([C@@H]6O[C@H](COS(=O)(=O)[O-])[C@@H](O[C@H]7O[C@H](COS(=O)(=O)[O-])[C@@H](O[C@H]8O[C@H](COS(=O)(=O)[O-])[C@@H](OS(=O)(=O)[O-])[C@H](OS(=O)(=O)[O-])[C@H]8OS(=O)(=O)[O-])[C@H](OS(=O)(=O)[O-])[C@H]7OS(=O)(=O)[O-])[C@H](OS(=O)(=O)[O-])[C@H]6OS(=O)(=O)[O-])nn5)CC[C@]4(C)[C@H]3CC[C@]12C.[Na+].[Na+].[Na+].[Na+].[Na+].[Na+].[Na+].[Na+].[Na+].[Na+]` (stereo partly drawn) [Compound 70, 4-(Cholestan-3-yl-oxymethyl)[1,2,3]triazol-1-yl 2,3,4,6-tetra-O-sodium sulfonato-α-D-glucopyranosyl-(1→4)-2,3,6-tri-O-sodium sulfonato-α-D-glucopyranosyl-(1→4)-1-deoxy-2,3,6-tri-O-sodium sulfonato-β-D-glucopyranoside], the “HSV-2 IC50” value (HSV-2) was 0.15 µg/mL, the Kd (VEGF) was 95 ± 8 nM and the Kd (FGF-2; [4]) was 390 ± 90 nM. For the same molecule, the APTT [1] was 104.0 s, the “RSV IC50” value (RSV) was 0.23 µg/mL and the Kd (FGF-1) was 9.7 ± 0.8 nM. It also gave a Heptest [2] of 45.5 s and a Ki [3] of 3.7 ± 0.8 nM.
